Source: patent US8530504B2, “Pyrazolothiazole compound” (Eisai R&D Management Co., Ltd., priority 2009, dated 2013)

How the values were obtained:
[1] = target: human CRFR1 (Homo sapiens (Human), UniProt P34998); assay: CRFR1 Binding Test; conditions: competition with 100 pM 125I-CRF, SPA method, membrane fraction of human CRFR1-expressing HEK293 cells; read-out: CRF1 receptor binding capacity IC50;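 note: nonspecific binding was determined with a 4,000-fold excess of unlabelled sauvagine and subtracted from every reading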
[2] = test system: mice; assay: Light/dark box test in mice (anxiolytic effect); type: in vivo; conditions: for Effective Dose: dose significantly prolonging time spent in the light box vs vehicle, oral administration one hour prior to test, male Balb/c mice; for anxiolytic effect in the light/dark box test in mice: statistically significant at 30 mg/kg (oral administration)
Method: <Evaluation of Anxiolytic Effect in Light/Dark Box Test in Mice>
The light/dark box test in mice was carried out according to a modified method of Belzung C., Misslin R., and Vogel E. et al. (Reference; Behavioural effects of the benzodiazepine receptor partial agonist RO16-6028 in mice, Psychopharmacology, 97, 388-391, 1989). The test apparatus used in this test was a light/dark box including a covered black acrylic box (dark box; 15×10×20 cm), a white acrylic box with top opened (light box; 15×20×20 cm) and a black acrylic tunnel (10×7×4.5 cm) that connects the dark box and the light box and enables a mouse to freely move back and forth between the dark box and light box. In this test apparatus, however, a transparent acrylic plate was used for the front side (20×20 cm) and back side (20×20 cm) of the light box to allow observation of the behavior. After setting illumination so that the light intensity of the floor surface of the light box became 150 Lux, 5-week-old male Balb/c mice (purchased from Nihon Charles River) were introduced into the dark box and the test was started. In the test, the tested compound was suspended in 5% dimethyl sulfoxide, 5% Cremopor EL and 90% physiological saline and orally administered to the test animals one hour prior to the start of the test.
The time spent in the light box was measured as an index of the anxiolytic effect, with “spend in the light box” defined as the state in which all limbs of the mice were on the floor of the light box. […] The statistical significance between the vehicle-treated group and the test compound-treated groups was analyzed by one-way layout analysis of variance followed by Dunnett multiple comparison when multiple doses were set for the same test, and by the Mann-Whitney U test when only one dose was set.

[3] = test system: Tg2576 transgenic mice; conditions: cited from earlier work
[4] = convulsion and epilepsy induced by CRF administration; cited from earlier work
[5] = test system: rats; conditions: cited from earlier work
[6] = test system: rats; conditions: cited from earlier work; remark: listed apart in the source
[7] = test system: rats; conditions: cited from earlier work; remark: listed apart in the source
[8] = pretreatment; cited from earlier work
[9] = in vivo; cited from earlier work
[10] = in vivo; cited from earlier work; remark: listed apart in the source
[11] = test system: IBS patients; conditions: cited from earlier work
[12] = test system: ethanol withdrawal rats; conditions: cited from earlier work
[13] = in vivo; cited from earlier work; remark: listed apart in the source
[14] = in vivo; cited from earlier work; remark: listed apart in the source
[15] = in vivo; cited from earlier work; remark: listed apart in the source
[16] = Journal of Psychiatric Research, 34:171-181 (2000); cited from earlier work
[17] = test system: rats; conditions: cited from earlier work; remark: listed apart in the source
[18] = test system: high-anxiety rats; conditions: particularly in high-anxiety rats; cited from earlier work
[19] = in vivo; cited from earlier work; remark: listed apart in the source
[20] = in vivo; cited from earlier work; remark: listed apart in the source

human CRFR1, sequence (P34998 24-415): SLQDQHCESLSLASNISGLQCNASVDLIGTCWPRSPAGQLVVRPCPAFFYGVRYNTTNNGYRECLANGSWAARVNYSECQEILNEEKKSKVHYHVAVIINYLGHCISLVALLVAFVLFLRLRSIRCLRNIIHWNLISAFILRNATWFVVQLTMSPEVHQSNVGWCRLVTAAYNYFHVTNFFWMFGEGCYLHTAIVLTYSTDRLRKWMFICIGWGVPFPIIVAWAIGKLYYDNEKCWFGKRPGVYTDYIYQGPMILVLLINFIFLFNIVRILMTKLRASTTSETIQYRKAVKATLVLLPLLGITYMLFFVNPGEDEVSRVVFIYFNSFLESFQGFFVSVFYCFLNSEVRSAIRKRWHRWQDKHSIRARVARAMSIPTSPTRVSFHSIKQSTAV

Molecule | IC50 [1] | Effective Dose [2] | anxiolytic effect in the light/dark box test in mice [2] | also measured
CCCN(c1c(OC)nn2c(-c3c(OC)cc(COCC)cc3OC)csc12)C1CCOC1 (stereo not drawn) [Example 46, 3-[4-(Ethoxymethyl)-2,6-dimethoxyphenyl]-6-methoxy-N-propyl-N-(tetrahydrofuran-3-yl)pyrazolo[5,1-b][1,3]thiazole-7-amine] | 0.026 µM | 30 mg/kg | excellent anxiolytic effects | –
COCc1cc(OC)c(-c2csc3c(N(CC4CC4)CC4C5COCC54)c(OC)nn23)c(OC)c1 (single isomer, unassigned; diastereomer 1) [Example 94, N-(Cyclopropylmethyl)-3-[2,6-dimethoxy-4-(methoxymethyl)phenyl]-6-methoxy-N-[3-oxabicyclo[3.1.0]hex-6-ylmethyl]-pyrazolo[5,1-b][1,3]thiazole-7-amine (diastereomer 1)] | 0.045 µM | 30 mg/kg | excellent anxiolytic effects | –
CCCN(CC1CC1)c1nc(C)nc(Nc2c(Cl)cc(Cl)cc2Cl)c1Cl [NBI27914] | – | – | – | increased levels of Aβ and Aβ plaque deposition induced by stress [3]: inhibits increased levels of Aβ and Aβ plaque deposition induced by stress; limbic system seizure [4]: inhibits limbic system seizure
CCOCc1cc(OC)c(-c2csc3c(N(CCCOC)CC4CC4)c(OC)nn23)c(OC)c1 [Example 42, N-(Cyclopropylmethyl)-3-[4-(ethoxymethyl)-2,6-dimethoxyphenyl]-6-methoxy-N-(3-methoxypropyl)pyrazolo[5,1-b][1,3]thiazole-7-amine] | 0.035 µM | 30 mg/kg | excellent anxiolytic effects | –
CCCCN(CC)c1nc(C)nc2c1c(C)cn2-c1c(C)cc(C)cc1C [CP-154526] | – | – | – | anti-depressant and anti-anxiety actions [5]: exhibits anti-depressant and anti-anxiety actions; recurrence of stress-elicited alcohol-seeking behavior [6]: inhibits recurrence of stress-elicited alcohol-seeking behavior; recurrence of stress-elicited drug (heroin, cocaine)-seeking behavior [7]: inhibits recurrence of stress-elicited drug (heroin, cocaine)-seeking behavior; naltrexone-induced morphine withdrawal symptoms [8]: inhibits naltrexone-induced morphine withdrawal symptoms; gastric emptying retardation after surgery [9]: recovers gastric emptying retardation after surgery; learning disability following acute stress [10]: inhibits learning disability following acute stress
α-helical CRF (9-41) | – | – | – | colon intestinal hyperkinesis, abdominal pain and anxiety [11]: inhibits colon intestinal hyperkinesis in IBS patients and reduces abdominal pain and anxiety; anxiety behavior [12]: inhibits anxiety behavior; stress-related reduction in food intake [13]: inhibit stress-related reduction in food intake; stress-related increase in intracerebral amyloid-β [14]: suppresses stress-related increase in intracerebral amyloid-β; ischemic and excitotoxic encephalopathy [15]: inhibits ischemic and excitotoxic encephalopathy
CCCN(CCC)c1cc(C)nc2c(-c3cnc(N(C)C)cc3C)c(C)nn12 [Example R121919] | – | – | – | ameliorating depression, depressive symptoms, anxiety [16]: effective for ameliorating depression, depressive symptoms, anxiety; anti-anxiety action [17]: exhibits an anti-anxiety action; stress-related sleep disorder [18]: inhibits stress-related sleep disorder
COCc1cc(OC)c(-c2csc3c(N(CC4CC4)CC4COCOC4)c(OC)nn23)c(OC)c1 [Example 11, Cyclopropylmethyl-3[3-(2,6-dimethoxy-4-methoxymethyl-phenyl)-6-methoxy-pyrazolo[5,1-b][1,3]thiazol-7-yl]-[1,3]dioxan-5-ylmethyl-amine] | 0.092 µM | 30 mg/kg | excellent anxiolytic effects | –
CCCCN(CC)c1nc(C)nc2c1c(C)c(C)n2-c1c(C)cc(C)cc1C [antalarmin] | – | – | – | stress-induced hippocampal tau phosphorylation [19]: inhibits stress-induced hippocampal tau phosphorylation; hypertension induced by intraventricular administration of CRF [20]: inhibits hypertension induced by intraventricular administration of CRF
CCN(c1nc(C)cc(N2CC=C(c3cccc(F)c3)CC2)n1)c1ccc(C(C)C)cc1SC [CRA1000] | – | – | – | stress-related reduction in food intake [13]: inhibit stress-related reduction in food intake
COCc1cc(OC)c(-c2csc3c(N(CC4CCOCC4)CC4CC4)c(C)nn23)c(OC)c1 [Example 4, N-(Cyclopropylmethyl)-3-[2,6-dimethoxy-4-(methoxymethyl)phenyl]-6-methyl-N-(tetrahydro-2H-pyran-4-ylmethyl)pyrazolo[5,1-b][1,3]thiazole-7-amine] | – | 30 mg/kg | excellent anxiolytic effects | –
COCc1cc(OC)c(-c2csc3c(N(CCCF)Cc4ccccn4)c(OC)nn23)c(OC)c1 [Example 72, 3-[2,6-Dimethoxy-4-(methoxymethyl)phenyl]-N-(3-fluoropropyl)-6-methoxy-N-(pyridin-2-ylmethyl)-pyrazolo[5,1-b][1,3]thiazole-7-amine] | 0.075 µM | – | – | –
CCCCN(CC1COCOC1)c1c(OC)nn2c(-c3c(OC)cc(COC)cc3OC)csc12 [Example 12, Butyl-[3-(2,6-dimethoxy-4-methoxymethyl-phenyl)-6-methoxy-pyrazolo[5,1-b][1,3]thiazol-7-yl)-[1,3]dioxan-5-ylmethyl-amine] | 0.071 µM | – | – | –
CCCN(c1c(OC)nn2c(-c3c(OC)cc(COC)cc3OC)csc12)C1CCOC1 (stereo not drawn) [Example 14, 3-[2,6-Dimethoxy-4-methoxymethylphenyl]-6-methoxy-N-propyl-N-(tetrahydrofuran-3-yl)pyrazolo[5,1-b][1,3]thiazole-7-amine] | 0.051 µM | 30 mg/kg | excellent anxiolytic effects | –
CCOc1nn2c(-c3c(OC)cc(COC)cc3OC)csc2c1N(CC1CC1)C1CCOCC1 [Example 81, N-(Cyclopropylmethyl)-3-[2,6-dimethoxy-4-(methoxymethyl)phenyl]-6-ethoxy-N-(tetrahydro-2H-pyran-4-yl)-pyrazolo[5,1-b][1,3]thiazole-7-amine] | 0.089 µM | – | – | –
COCc1cc(OC)c(-c2csc3c(N(CCCF)Cc4ccncc4)c(OC)nn23)c(OC)c1 [Example 70, 3-[2,6-Dimethoxy-4-(methoxymethyl)phenyl]-N-(3-fluoropropyl)-6-methoxy-N-(pyridin-4-ylmethyl)-pyrazolo[5,1-b][1,3]thiazole-7-amine] | 0.061 µM | – | – | –
CCCN(c1c(OC)nn2c(-c3c(OC)cc(COC)cc3OC)c(CC)sc12)C1CCOCC1 [Example 9, [3-(2,6-Dimethoxy-4-methoxymethyl-phenyl)-2-ethyl-6-methoxy-pyrazolo[5,1-b][1,3]thiazol-7-yl]-propyl-(tetrahydro-pyran-4-yl)-amine] | 0.116 µM | – | – | –
COCCCN(c1c(OC)nn2c(-c3c(Cl)cc(COC)cc3OC)csc12)C1CCCC1 [Example 73, 3-[2-Chloro-6-methoxy-4-(methoxymethyl)phenyl]-N-cyclopentyl-6-methoxy-N-(3-methoxypropyl)pyrazolo[5,1-b][1,3]thiazole-7-amine] | 0.066 µM | – | – | –
